Source: US7425640B2, “Substituted 5-carboxyamide pyrazoles and [1,2,4]triazoles as antiviral agents” (priority 2004, dated 2008)

What follows are molecules tested against HCV RNA-dependent RNA polymerase NS5B (Δ21) (Hepatitis C virus genotype 1b, UniProt P26663) (assay: Assay for HCV RNA-dependent RNA polymerase activity (SPA, [3H]-GTP incorporation)). Conditions: read-out: Δ21 Activity (IC50 μM); 50 nM NS5B (Δ21), class symbols.
Type: biochemical
In short: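 NS5B (Δ21), 50 nM, was incubated 3 h at room temperature with biotinylated oligoG12/polyC template, 5 μM GTP plus [3H]-GTP, in HEPES pH 7.3 with MgCl2 and NaCl. [3H]-GTP incorporation was read by streptavidin SPA. IC50 came from single experiments across 11 two-fold dilutions (0.05–50 μM).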

HCV RNA-dependent RNA polymerase NS5B (Δ21), sequence (P26663 2420-2989, stated change not applied): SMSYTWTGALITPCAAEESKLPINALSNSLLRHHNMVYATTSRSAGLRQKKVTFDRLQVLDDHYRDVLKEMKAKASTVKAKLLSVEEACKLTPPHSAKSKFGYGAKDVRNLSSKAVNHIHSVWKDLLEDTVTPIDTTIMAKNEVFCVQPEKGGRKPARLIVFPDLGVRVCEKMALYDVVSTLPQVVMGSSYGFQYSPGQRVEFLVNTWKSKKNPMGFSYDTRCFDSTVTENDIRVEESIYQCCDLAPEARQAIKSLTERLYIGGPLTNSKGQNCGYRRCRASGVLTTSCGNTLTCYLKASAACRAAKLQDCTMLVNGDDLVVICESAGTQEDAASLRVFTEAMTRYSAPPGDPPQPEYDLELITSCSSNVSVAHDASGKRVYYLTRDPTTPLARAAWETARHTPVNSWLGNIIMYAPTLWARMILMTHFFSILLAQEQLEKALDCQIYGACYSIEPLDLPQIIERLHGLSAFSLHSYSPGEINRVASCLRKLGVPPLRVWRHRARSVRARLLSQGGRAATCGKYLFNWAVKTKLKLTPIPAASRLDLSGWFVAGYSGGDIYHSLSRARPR

Question: For `O=C(Cn1nc(NS(=O)(=O)c2ccc(F)cc2F)cc1C(=O)N[C@H]1CCCC[C@@H]1OCc1ccccc1)N[C@H]1CCCC[C@@H]1OCc1ccccc1` [Compound 79], which IC50 is on record?
Answer: 0.1 to 1 µM

Question: Which IC50 does the source give for `O=C(Cn1nc(C(=O)O)nc1C(=O)Nc1ccccc1OCc1ccccc1)N[C@H]1CCCC[C@@H]1OCc1ccccc1` [Compound 62] here?
Answer: 0.1 to 1 µM

Question: Which IC50 does the source give for `O=C(Cn1nc(C(=O)N2CCCC3CC=CC=C32)cc1C(=O)N[C@H]1CCCC[C@@H]1OCc1ccccc1)N[C@H]1CCCC[C@@H]1OCc1ccccc1` (some centres unmarked) [Compound 86] here?
Answer: 0.1 to 1 µM

Question: How did the IC50 turn out when `CON=Cc1cc(C(=O)N[C@H]2CCCC[C@@H]2OCc2ccccc2)n(CC(=O)N[C@H]2CCCC[C@@H]2OCc2ccccc2)n1` [Compound 162] was run?
Answer: 0.1 to 1 µM

Question: `O=C(Cn1nc(C(=O)NCCc2cccc(Cl)c2)cc1C(=O)N[C@H]1CCCC[C@@H]1OCc1ccccc1)N[C@H]1CCCC[C@@H]1OCc1ccccc1` [Compound 94] was tested. Which IC50 did it give?
Answer: 0.1 to 1 µM

Question: Which IC50 does the source give for `CS(=O)(=O)NC(=O)c1cc(C(=O)N[C@H]2CCCC[C@@H]2OCc2ccccc2)n(CC(=O)N[C@H]2CCCC[C@@H]2OCc2ccccc2)n1` [Compound 155] here?
Answer: 0.1 to 1 µM

Question: `O=C(Cn1nc(O)cc1C(=O)N[C@H]1CCCC[C@@H]1OCc1ccccc1)N[C@H]1CCCC[C@@H]1OCc1ccccc1` [Compound 69] was tested. Which IC50 did it give?
Answer: 0.1 to 1 µM

Question: Which IC50 does the source give for `O=C(Cn1nc(C(=O)NCC2CC2)cc1C(=O)N[C@H]1CCCC[C@@H]1OCc1ccccc1)N[C@H]1CCCC[C@@H]1OCc1ccccc1` [Compound 100] here?
Answer: 0.1 to 1 µM

Question: Which IC50 does the source give for `O=C(Cn1nc(NC(=O)NC2CCCCC2)cc1C(=O)N[C@H]1CCCC[C@@H]1OCc1ccccc1)N[C@H]1CCCC[C@@H]1OCc1ccccc1` [Compound 118] here?
Answer: 0.1 to 1 µM

Question: How did the IC50 turn out when `O=C(Cn1nc(C(=O)NC2CC2)cc1C(=O)N[C@H]1CCCC[C@@H]1OCc1ccccc1)N[C@H]1CCCC[C@@H]1OCc1ccccc1` [Compound 122] was run?
Answer: 0.1 to 1 µM

Question: How did the IC50 turn out when `O=C(Cn1nc(C(=O)NCc2ccccc2)cc1C(=O)N[C@H]1CCCC[C@@H]1OCc1ccccc1)N[C@H]1CCCC[C@@H]1OCc1ccccc1` [Compound 50] was run?
Answer: 0.1 to 1 µM

Question: With `Cc1ccc(OCC2CC2)c(NC(=O)Cn2nc(C(=O)O)cc2C(=O)N[C@H]2CCCC[C@@H]2OCc2ccccc2)c1` [Compound 56] as the molecule, how does the IC50 read?
Answer: 0.1 to 1 µM

Question: For `O=C(Cn1nc(C(=O)c2ccccc2)cc1C(=O)N[C@H]1CCCC[C@@H]1OCc1ccccc1)N[C@H]1CCCC[C@@H]1OCc1ccccc1` [Compound 88], which IC50 is on record?
Answer: 0.1 to 1 µM

Question: `CC(C)C(=O)c1cc(C(=O)N[C@H]2CCCC[C@@H]2OCc2ccccc2)n(CC(=O)N[C@H]2CCCC[C@@H]2OCc2ccccc2)n1` [Compound 63] was tested. Which IC50 did it give?
Answer: 0.1 to 1 µM

Question: With `O=C(Cn1nc(C(=O)Nc2ccccc2)cc1C(=O)N[C@H]1CCCC[C@@H]1OCc1ccccc1)N[C@H]1CCCC[C@@H]1OCc1ccccc1` [Compound 54] as the molecule, how does the IC50 read?
Answer: 0.1 to 1 µM

Question: How did the IC50 turn out when `O=C(Cn1nc(C(=O)N2CCN(Cc3ccccc3)CC2)cc1C(=O)N[C@H]1CCCC[C@@H]1OCc1ccccc1)N[C@H]1CCCC[C@@H]1OCc1ccccc1` [Compound 156] was run?
Answer: 0.1 to 1 µM

Question: `CC(C)(C)OC(=O)c1cc(C(=O)N[C@H]2CCCC[C@@H]2OCc2ccccc2)n(CC(=O)N[C@H]2CCCC[C@@H]2OCc2ccccc2)n1` [Compound 65] was tested. Which IC50 did it give?
Answer: 0.1 to 1 µM

Question: With `CON(C)C(=O)c1cc(C(=O)N[C@H]2CCCC[C@@H]2OCc2ccccc2)n(CC(=O)N[C@H]2CCCC[C@@H]2OCc2ccccc2)n1` [Compound 109] as the molecule, how does the IC50 read?
Answer: 0.1 to 1 µM

Question: With `O=C(O)CCCCCNC(=O)CCCCCNC(=O)c1cc(C(=O)N[C@H]2CCCC[C@@H]2OCc2ccccc2)n(CC(=O)N[C@H]2CCCC[C@@H]2OCc2ccccc2)n1` [Compound 165] as the molecule, how does the IC50 read?
Answer: 0.1 to 1 µM

Question: `O=C(Cn1nc(C(=O)NCCCCCC(=O)ON2C(=O)CCC2=O)cc1C(=O)N[C@H]1CCCC[C@@H]1OCc1ccccc1)N[C@H]1CCCC[C@@H]1OCc1ccccc1` [Compound 151] was tested. Which IC50 did it give?
Answer: 0.1 to 1 µM

Question: `NC(=O)c1cc(C(=O)N[C@H]2CCCC[C@@H]2OCc2ccccc2)n(CC(=O)N[C@H]2CCCC[C@@H]2OCc2ccccc2)n1` [Compound 157] was tested. Which IC50 did it give?
Answer: 0.1 to 1 µM

Question: How did the IC50 turn out when `O=C(Cn1nc(NC(=O)Nc2ccccc2)cc1C(=O)N[C@H]1CCCC[C@@H]1OCc1ccccc1)N[C@H]1CCCC[C@@H]1OCc1ccccc1` [Compound 102] was run?
Answer: 0.1 to 1 µM

Question: How did the IC50 turn out when `O=C(Cn1nc(NS(=O)(=O)c2cccc3cccnc23)cc1C(=O)N[C@H]1CCCC[C@@H]1OCc1ccccc1)N[C@H]1CCCC[C@@H]1OCc1ccccc1` [Compound 144] was run?
Answer: 0.1 to 1 µM

Same assay, conditions: Δ21 Activity (IC50 μM), 50 nM NS5B (Δ21), class symbols

Question: `Cc1ccc(OCn2nc(C)cc2C)c(NC(=O)c2cc(C(=O)O)nn2CC(=O)N[C@H]2CCCC[C@@H]2OCc2ccccc2)c1` [Compound 208] was tested. Which IC50 did it give?
Answer: > 1 µM

Question: Which IC50 does the source give for `CC(=O)Nc1cc(C(=O)N[C@H]2CCCC[C@@H]2OCc2ccccc2)n(CC(=O)NC2CCCC[C@@H]2OCc2ccccc2)n1` (some centres unmarked) [Compound 196] here?
Answer: > 1 µM

Question: `O=C(Cn1nc(C(=O)Nc2ccc(-c3ccccc3)cc2)cc1C(=O)N[C@H]1CCCC[C@@H]1OCc1ccccc1)NC1CCCC[C@@H]1OCc1ccccc1` (some centres unmarked) [Compound 203] was tested. Which IC50 did it give?
Answer: > 1 µM

Question: How did the IC50 turn out when `O=C(Cn1nc(C(=O)NCCCn2ccnc2)cc1C(=O)N[C@H]1CCCC[C@@H]1OCc1ccccc1)N[C@H]1CCCC[C@@H]1OCc1ccccc1` [Compound 188] was run?
Answer: > 1 µM

Question: How did the IC50 turn out when `COc1ccc(NC(=O)c2cc(C(=O)O)nn2CC(=O)N[C@H]2CCCC[C@@H]2OCc2ccccc2)c(OCc2ccccc2)c1` [Compound 201] was run?
Answer: > 1 µM

Question: How did the IC50 turn out when `O=C(Cn1nc(C(=O)Nc2nnn[nH]2)cc1C(=O)Nc1ccccc1OCc1ccccc1)N[C@H]1CCCC[C@@H]1OCc1ccccc1` [Compound 20] was run?
Answer: 0.05 to 0.1 µM

Question: With `O=C(Cn1nc(-c2nnn[nH]2)cc1C(=O)Nc1ccccc1OCc1ccccc1)N[C@H]1CCCC[C@@H]1OCc1ccccc1` [Compound 25] as the molecule, how does the IC50 read?
Answer: 0.05 to 0.1 µM

Question: Which IC50 does the source give for `O=C(Cn1nc(NS(=O)(=O)c2cccc(Br)c2)cc1C(=O)N[C@H]1CCCC[C@@H]1OCc1ccccc1)N[C@H]1CCCC[C@@H]1OCc1ccccc1` [Compound 36] here?
Answer: 0.05 to 0.1 µM

Question: `O=C(Cn1nc(C(=O)O)cc1C(=O)Nc1cc(C(F)(F)F)ccc1OCc1ccccc1)N[C@H]1CCCC[C@@H]1OCc1ccccc1` [Compound 14] was tested. Which IC50 did it give?
Answer: < 0.05 µM

Question: `O=C(Cn1nc(C(=O)O)cc1C(=O)Nc1cc(Cl)ccc1OCC1CCCCC1)N[C@H]1CCCC[C@@H]1OCc1ccccc1` [Compound 3] was tested. Which IC50 did it give?
Answer: < 0.05 µM

Question: With `N#CNC(=O)c1cc(C(=O)N[C@H]2CCCC[C@@H]2OCc2ccccc2)n(CC(=O)N[C@H]2CCCC[C@@H]2OCc2ccccc2)n1` [Compound 15] as the molecule, how does the IC50 read?
Answer: < 0.05 µM

Question: Which IC50 does the source give for `Cc1ccc(OCC2CCCCC2)c(NC(=O)c2cc(C(=O)NC#N)nn2CC(=O)N[C@H]2CCCC[C@@H]2OCc2ccccc2)c1` [Compound 4] here?
Answer: < 0.05 µM

Question: How did the IC50 turn out when `O=C(Cn1nc(-c2cccs2)cc1C(=O)N[C@H]1CCCC[C@@H]1OCc1ccccc1)N[C@H]1CCCC[C@@H]1OCc1ccccc1` [Compound 170] was run?
Answer: > 1 µM

Question: For `O=C(O)c1cc(C(=O)N[C@H]2CCCC[C@@H]2OCc2ccccc2)n(CC(=O)N2CCC[C@@H]2COCc2ccccc2)n1` [Compound 198], which IC50 is on record?
Answer: > 1 µM

Question: How did the IC50 turn out when `O=C(Cn1nc(C(=O)O)cc1C(=O)N[C@H]1CCCC[C@@H]1OCc1ccccc1)NC1CCCC[C@@H]1N1CCOCC1` (some centres unmarked) [Compound 211] was run?
Answer: > 1 µM

Question: `CN(C)S(=O)(=O)Nc1cc(C(=O)N[C@H]2CCCC[C@@H]2OCc2ccccc2)n(CC(=O)N[C@H]2CCCC[C@@H]2OCc2ccccc2)n1` [Compound 45] was tested. Which IC50 did it give?
Answer: 0.05 to 0.1 µM

Question: `O=C(Cn1nc(NS(=O)(=O)C(F)(F)F)cc1C(=O)N[C@H]1CCCC[C@@H]1OCc1ccccc1)N[C@H]1CCCC[C@@H]1OCc1ccccc1` [Compound 26] was tested. Which IC50 did it give?
Answer: 0.05 to 0.1 µM

Question: With `CCOCCN(CCOCC)C(=O)c1cc(C(=O)N[C@H]2CCCC[C@@H]2OCc2ccccc2)n(CC(=O)N[C@H]2CCCC[C@@H]2OCc2ccccc2)n1` [Compound 177] as the molecule, how does the IC50 read?
Answer: > 1 µM

Question: With `C=CCOc1ccccc1NC(=O)Cn1nc(C(=O)O)cc1C(=O)N[C@H]1CCCC[C@@H]1OCc1ccccc1` [Compound 171] as the molecule, how does the IC50 read?
Answer: > 1 µM

Question: How did the IC50 turn out when `O=C(Cn1nc(NS(=O)(=O)c2ccc3ccccc3c2)cc1C(=O)N[C@H]1CCCC[C@@H]1OCc1ccccc1)N[C@H]1CCCC[C@@H]1OCc1ccccc1` [Compound 33] was run?
Answer: 0.05 to 0.1 µM

Question: For `O=C(Cn1nc(NS(=O)(=O)c2ccc(Cl)s2)cc1C(=O)N[C@H]1CCCC[C@@H]1OCc1ccccc1)N[C@H]1CCCC[C@@H]1OCc1ccccc1` [Compound 38], which IC50 is on record?
Answer: 0.05 to 0.1 µM

Question: With `O=C(Cn1nc(C(=O)O)cc1C(=O)NC12CC3CC(CC(C3)C1)C2)NC1CCCC[C@@H]1OCc1ccccc1` (some centres unmarked) [Compound 207] as the molecule, how does the IC50 read?
Answer: > 1 µM

Question: With `O=C(Cn1nc(C(=O)NCCCN2CCCC2=O)cc1C(=O)N[C@H]1CCCC[C@@H]1OCc1ccccc1)N[C@H]1CCCC[C@@H]1OCc1ccccc1` [Compound 168] as the molecule, how does the IC50 read?
Answer: > 1 µM

Question: Which IC50 does the source give for `N#Cc1cc(C(=O)N[C@H]2CCCC[C@@H]2OCc2ccccc2)n(CC(=O)N[C@H]2CCCC[C@@H]2OCc2ccccc2)n1` (stereo in doubt) [Compound 187, 2-[(2-benzyloxy-cyclohexylcarbamoyl)-methyl]-5-cyano-2H-pyrazole-3-carboxylic acid (2-benzyloxy-cyclohexyl)-amide] here?
Answer: > 1 µM

Question: Which IC50 does the source give for `O=C(Cn1nc(NS(=O)(=O)c2cccc(F)c2)cc1C(=O)N[C@H]1CCCC[C@@H]1OCc1ccccc1)N[C@H]1CCCC[C@@H]1OCc1ccccc1` [Compound 31] here?
Answer: 0.05 to 0.1 µM

Question: How did the IC50 turn out when `O=C(Cn1nc(C(=O)Nc2ccccc2-c2ccccc2)cc1C(=O)N[C@H]1CCCC[C@@H]1OCc1ccccc1)N[C@H]1CCCC[C@@H]1OCc1ccccc1` [Compound 179] was run?
Answer: > 1 µM

Same assay, conditions: Δ21 Activity (IC50 μM), 50 nM NS5B (Δ21), numeric values

Question: For `O=C(Cn1nc(C(=O)O)cc1C(=O)Nc1ccc(F)cc1OCC1CCCCC1)N[C@H]1CCCC[C@@H]1OCc1ccccc1` [drawing 249], which IC50 is on record?
Answer: 0.035 µM

Question: `O=C(Cn1nc(C(=O)O)cc1C(=O)Nc1cc(Cl)ccc1OCC1CCCCC1)N[C@H]1CCCC[C@@H]1OCc1ccccc1` [drawing 242] was tested. Which IC50 did it give?
Answer: 0.02 µM

Question: `COc1cccc(NC(=O)c2cc(C(=O)N[C@H]3CCCC[C@@H]3OCc3ccccc3)n(CC(=O)N[C@H]3CCCC[C@@H]3OCc3ccccc3)n2)c1` [drawing 255] was tested. Which IC50 did it give?
Answer: 0.045 µM

Question: Which IC50 does the source give for `O=C(Cn1nc(NS(=O)(=O)c2ccc(Cl)cc2)cc1C(=O)N[C@H]1CCCC[C@@H]1OCc1ccccc1)N[C@H]1CCCC[C@@H]1OCc1ccccc1` [drawing 250] here?
Answer: 0.036 µM
